Source: patent EP3431088A1, “MNTBAP FOR USE IN INDUCING A TRANSIENT IMMUNE TOLERANCE” (priority 2017, dated 2019)

What was measured:
CD4 = CD4 cell surface expression by flow cytometry; format: cell-based, murine
Procedure: (§1) MnTBAP (Calbiochem, San Diego, USA or Enzo Life Sciences, Farmingdale, USA) is dissolved in 75 mM NaOH to constitute a 20 mM stock solution. MnTBAP is dissolved in the complete medium, used for in vitro treatment, containing RPMI-1640 supplemented with 10% heat-inactivated fetal calf serum, 100 U/ml penicillin/streptomycin, 2 mM glutamax and 50 µM β-mercaptoethanol β-ME). Hypertonic medium, used to block clathrin dependent endocytosis, is complete medium supplemented with 0.45 M sucrose. For in vivo treatment, the stock solution is diluted with PBS and administered at 80 mg/kg intraperitoneally daily during five days. Control animals are injected with equivalent volume of PBS.
(§2) After mechanic disruption of the spleen, erythrocytes are eliminated by hypotonic shock with ammonium chloride potassium (ACK) lysing buffer. Then CD4^+ T cells are isolated from spleen cell suspension by negative selection using a CD4^+ T cell isolation kit (Miltenyi Biotec, Paris, France) followed by auto-MACS (Miltenyi Biotec) magnetic sorting, according to the manufacturer's instructions. Purity of isolated CD4^+ T cells is usually > 95%. Cell suspensions are first incubated with anti-FcγRIII/II (Fc Block, 2.4G2, BD Biosciences, Le Pont de Claix, France) monoclonal antibodies (mAb) for 10 minutes at 4°C and then stained for 30 minutes at 4°C in PBS, 0.1% bovine serum albumin (BSA) with Fc Block present, using saturating amounts of rat anti-mouse CD4-Pacific Blue (RM4-5, BD Biosciences) mAb. Gates for CD4^+ populations are set according to isotype controls. Cell viability is determined by staining with 7-aminoactinomycin D (7-AAD; Sigma-Aldrich, St-Quentin-Fallavier, France) or Fixable Viability Dye eFluor 780 (eBiosciences, Paris, France). When indicated, samples are fixed with 1% paraformaldehyde. Samples are acquired on an LSR II flow cytometer (BD Biosciences) and data were analyzed with DIVA software (BD Biosciences).

[1] = test system: splenic enriched CD4^+ T cells; experiment: Cell viability by Fixable Viability Dye eFluor 780, flow cytometry; format: cell-based, murine; conditions: 400 µM, 2 hours
Procedure: as §2

[2] = test system: lentiviral vectors pseudotyped with HIV-1 envelope protein (HXB2-env); experiment: Transduction of human CD3+ T cells by HXB2-env pseudotyped lentiviral vectors (GFP); format: cell-based; conditions: 400 µM, 72 hours post transduction, vs control
Procedure: CD3^+ T cells, from peripheral blood of healthy individual donors, are purified by positive selection via MACS beads using a magnetic cell sorting system (Miltenyi Biotec). CD3^+ T cells are activated for 3 days at 37°C, 5% CO2 in plates coated with anti-CD3 (10 µg/ml) and anti-CD28 (10 µg/ml) antibodies (both from Miltenyi Biotec) and filled with RPMI 1640 medium supplemented with 10% heat-inactivated fetal calf serum, 100 U/ml penicillin/streptomycin, 2 mM glutamax, 100 IU/ml IL-2 (Miltenyi Biotec). Cells are then transferred on retronectin (20 µg/cm2) coated-plates, in the presence or absence of MnTBAP (400 µM), at a density of 2.5 x 10^5 cells/ml for transduction during 6 h with 6 x 10^7 physical particles (pp)/ml of HXB2-env pseudotyped lentiviral vectors expressing GFP reporter gene under the control of hPGK (human phosphoglycerate kinase 1). After transduction, cells are washed and further incubated for 72 h in fresh culture medium (RPMI 1640 medium supplemented as described above). Cells are then harvested for transduction efficiency analysis by FACS, determined as the percentage of viable (7AAD-) lymphoid cells expressing GFP^+. The data are normalized to be a percentage of the control value (none) from each experiment.

[3] = test system: Reactive Oxygen Species (ROS); experiment: In vivo chemiluminescence imaging of localized inflammation (L-012); parameters: species or system mice; conditions: 4 days after first MnTBAP injection, IM rAAV gene transfer, vs PBS
Procedure: as §1
Intramuscular (IM) injection: Two hours post first intraperitoneal (IP) injection of MnTBAP, mice are anesthetized by IP injection of xylazine (10 mg/kg) and ketamine (100 mg/kg) and 25 µl of a rAAV2/1 CMV SGCA HY viral preparation containing 2.5.10^9 vg is injected in the left tibialis anterior muscle (TA). Controls are injected with PBS. Mice are sacrificed 15 days after vector injection and the injected muscles are harvested to perform histologic analysis. […]
After mice isofluorane anaesthesia, 100 µl of L-012 solution (15 mg/ml) (Wako, Osaka, Japan) are administered intravenously in retro-orbital sinus 4 days after first MnTBAP injection. […] Radiance (ph/s/cm^2/sr) is measured for each Region of Interest (ROI).

[4] = test system: splenic T-lymphocyte subsets; experiment: Absolute numbers of splenic T-lymphocyte subsets by flow cytometry; format: in vivo, mice; conditions: 15 days post first injection, after gene transfer, vs PBS
Procedure: as §1
Intramuscular (IM) injection: Two hours post first intraperitoneal (IP) injection of MnTBAP, mice are anesthetized by IP injection of xylazine (10 mg/kg) and ketamine (100 mg/kg) and 25 µl of a rAAV2/1 CMV SGCA HY viral preparation containing 2.5.10^9 vg is injected in the left tibialis anterior muscle (TA). Controls are injected with PBS. Mice are sacrificed 15 days after vector injection and the injected muscles are harvested to perform histologic analysis. Spleens are harvested to analyze transgene-specific T cell response.
After mechanic disruption of the spleen, erythrocytes are eliminated by hypotonic shock with ammonium chloride potassium (ACK) lysing buffer. […]

O=C(O)c1ccc(-c2c3nc(c(-c4ccc(C(=O)O)cc4)c4ccc([n-]4)c(-c4ccc(C(=O)O)cc4)c4nc(c(-c5ccc(C(=O)O)cc5)c5ccc2[n-]5)C=C4)C=C3)cc1.[Mn+3] [MnTBAP, manganese [III] tetrakis (4-benzoic acid) porphyrin]
CD4 expression (CD4 GMFI) (CD4; 2 hours after washing out MnTBAP ("2 h removed")): the decrease of CD4 expression is less important | CD4 expression (CD4 GMFI) (CD4; fixed cells, 400 µM, 2 hours ("treated") vs "none"): decrease of CD4 expression | CD4 expression (CD4; hypertonic conditions (RPMI + 0.45 M sucrose), 400 µM, 2 hours, treated vs non-treated): no significant difference of CD4 expression | percentage of CD4 expression (CD4; normal tonicity (RPMI), 400 µM, 2 hours, vs non-treated): decreased | CD4 expression (CD4 GMFI) (CD4; overnight after removing MnTBAP ("O/N removed")): further less accentuated | CD4 at the cell surface of CD4 expressing cells (CD4; splenic enriched CD4+ T cells, 400 µM, 2 hours, vs control): disappearance of CD4 at the cell surface | CD4 expression (CD4; viable murine splenic enriched CD4+ T cells, 2 hours, 400 µM): maximal decrease of CD4 expression | CD4 expression (CD4; viable murine splenic enriched CD4+ T cells, 2 hours, increasing doses 0, 100, 200, 400 µM): progressive decrease of CD4 expression | cell death (eFluor 780+ dead cells) [1]: doesn't result in more eFluor 780+ dead cells | transduction efficiency of human T cells (GFP^+ cells) [2]: significantly decreased | Reactive Oxygen Species (ROS), average radiance of left inferior limb [3]: produce less Reactive Oxygen Species (ROS) | absolute number of splenic CD4^+ T cells [4]: significant decrease in the absolute number | absolute number of splenic CD8^+ T cells [4]: significant decrease in the absolute number
